The text below walks through data of patent publication US20080160163A1, “Reduction of Digestibility of Phosphorus” (BAYER HEALTHCARE AG, priority 2005, published 2008).

Data set [1] has as its system adult healthy domestic cats. Particulars: 0.3 and 3.0 g per kg of feed for two weeks. The source says:
Within the context of a larger study, 24 adult healthy domestic cats of both genders, individually fed with a commercially available regular canned diet (‘Petley's Gourmet Supreme Beef Casserole’, PROMEAL (PTY) Ltd., containing 0.19% phosphorus corresponding to 1.13% phosphorus in the dry matter), were randomised to three equal groups of eight animals which were fed for two weeks with dose levels corresponding to 0, 0.3, and 3.0 grams of lanthanum carbonate octahydrate per kg of feed in their daily feed ration.
During the study the amount of food consumed was recorded daily and the animals were observed daily for the possible occurrence of adverse events. In the faeces collected over a three-day sampling period at the end of the study, the phosphorus levels were measured. On comparing the dietary intake of phosphorus with the excretion of phosphorus in the faeces, the apparent phosphorus digestibility was calculated according to the following equation: […]

Data set [2] has as its system adult healthy female beagle dogs. Particulars: dogs, 1.75, 5.0 and 17.5 g per kg of feed. From the text: A total of twelve adult healthy female beagle dogs were individually fed with a commercially available regular canned feed (‘Eukanuba Adult with much lamb’, IAMs Pet Food Ltd., containing 0.25% of phosphorus corresponding to 1.09% phosphorus in the dry matter). At weekly intervals, their diet was supplemented with increasing amounts of lanthanum carbonate octahydrate, thus resulting in final concentrations of the feed additive of 0, 1.75, 5.0, and 17.5 g of lanthanum carbonate octahydrate per kg of feed.
During the study the amount of food consumed was recorded daily and the animals were observed daily for the possible occurrence of adverse events. In the faeces collected over a two-day sampling period at the end of the study, the phosphorus levels were measured. On comparing the dietary intake of phosphorus with the excretion of phosphorus in the faeces, the apparent phosphorus digestibility was calculated according to the following equation: […]

In data set [3] the test system is adult healthy domestic cats. The source says:
Fifteen adult healthy domestic cats of both genders were individually fed with commercially available regular canned diet (Premium Pate rich in lamb, IAMS Pet Food GmbH & Co containing 0.26% of phosphorus corresponding to 1.13% phosphorus in the dry matter). The aim of the study was to assess the palatability and safety of lanthanum carbonate octahydrate especially in high doses. Therefore 10 cats were fed lanthanum carbonate octahydrate in their daily feed ration at increasing doses. The study began with a dose level of about 12-15 g per kg of feed (dry matter). The dose was doubled every two weeks up to a dose level of about 96-120 g per kg of feed (dry matter). Five cats were given the feed without any lanthanum carbonate octahydrate and served as controls.
Palatability was assessed daily by observing the general acceptance of the feed. Tolerability and safety were assessed by measuring the blood serum phosphate levels and body weight at regular intervals as well as by daily observations concerning the health status and the possible occurrence of adverse events.

Setting [4] is: up to a dose level of 1 g/kg of body weight (=about 108 mg per kg of dry feed).

Turning to `O.O.O.O.O.O.O.O.O=C([O-])[O-].O=C([O-])[O-].O=C([O-])[O-].[La+3].[La+3]` [lanthanum carbonate octahydrate], the “tolerance in the study animals” value in data set [1] and in data set [2] was “no negative effect” each time. In addition, the apparent phosphorus digestibility entry in data set [1] (FIG. 1.2) and in data set [2] (FIG. 2.2) was “corresponding decrease” throughout. The “phosphorus content in the faeces” value in data set [1] (faeces collected over three days, FIG. 1.1) was “dose-dependently increased”; in data set [2] (increased weekly, faeces collected over two days, FIG. 2.1), “dose-dependently increased”. Also, the “tolerance of the study animals” value in data set [3] (even in extremely high doses) was “no negative effect”. Besides, the “palatability or acceptance of the feed or its safety compared to the control cats” value in data set [3] (increasing doses vs control cats) is “no difference”. In addition, the adverse events entry in data set [3] (setting [4]) is reported as “no limiting adverse events”. In addition, in data set [3] (setting [4]), the body weight result is listed as “no changes”. The serum phosphate levels entry in data set [3] (setting [4]) was “no changes”.
